Experimental data as given in patent US6552009B2, “Compositions and methods of treating abnormal cell proliferation” (Gentrix LLC, priority 1998, dated 2003).

Test system: moderate to severe papular-pustular acne
Assay type: in vivo, human
Conditions: for skin irritation: human, in vivo
Description: This example compares therapeutically applied retinyl palmitate, retinoic acid, calcitriol, and combinations thereof in a cream at different concentrations with the effectiveness of the cream without any of the above compounds present in treating acne. The base cream used to prepare the experimental formulations is the commercially available […] cream. The different compounds at different concentrations were added to the cream and mixed very well. Sixty six volunteers were recruited and were randomly assigned to each of the groups. the subjects were selected on the basis of their having moderate to severe papular-pustular acne. Each group consisted of 3 males and 3 females. No other acne treatment was permitted during the period. Preparations were applied to the face in the morning and evening after washing the face with ordinary soap. Observations were made at time 0, 1, 4, and 8 weeks to assure that treatment was carried out according to direction. Judgments of “worse”, “no change”, “mild”, and “good” were made after 8 weeks of treatment.

Compound	skin irritation	improvement in treating acne versus lower concentrations (concentrations at about 1.5% and more)
CC1=C(/C=C/C(C)=C/C=C/C(C)=C/CO)C(C)(C)CCC1=O [4-oxo-retinol]	did not	–
C=C1/C(=C\C=C2/CCC[C@]3(C)[C@@H]([C@H](C)CCCC(C)(C)O)CC[C@@H]23)C[C@@H](O)C[C@@H]1O [calcitriol, reference compound]	caused skin irritation	–
CCCCCCCCCCCCCCCC(=O)OC/C=C(C)/C=C/C=C(C)/C=C/C1=C(C)CCCC1(C)C [retinyl palmitate]	did not	remarkable improvement over lower concentrations
CC1=C(/C=C/C(C)=C/C=C/C(C)=C/C(=O)O)C(C)(C)CCC1 [retinoic acid, reference compound]	caused skin irritation	–
